Converted amounts (≈) assume the structure as drawn. Like-named read-outs stand apart in the source and are kept apart here.
What was measured:
adult Arabidopsis plants = experiment: Thermal imaging assay of sprayed adult plants; assay type: in vivo; settings: sprayed at 50 uM dose on adult Arabidopsis plants; compared with quinabactin and ABA at the same dose
From the text: Molecules that elicit ABA-like effects in vivo typically close guard cells, which arrests transpirational water loss, resulting in less efficient cooling of the leaf surface and a concomitant increase in leaf surface temperature. Infrared thermography has recently emerged as an attractive, noninvasive technique to evaluate plant leaf surface temperature.
For the adult plants used for thermal imaging, seeds were sterilized as described in Example 3. Afterwards, the seeds were spread onto 0.7% agar MS plant growth medium containing one-half MS salts and 0.5% sucrose. After 4 d of stratification at 4° C., these plates were transferred to a growth chamber in light and allowed to germinate and grow for 7 d. The seedlings then were transferred into soil, and plants of 3-4 wk old were used for thermal imaging. Before thermal imaging, topical spraying of the plants was performed with a water solution containing an active agent (50 μM ABA, quinabactin, or a test compound of interest), 0.5% DMSO, and 0.02% polyalkyleneoxide modified heptamethyltrisiloxane surfactant (Silwet-77). Thermal images were collected just before spraying, 24 h after treatment, and 48 h after treatment. Treated plants were compared to mock-treated plants that had been sprayed with water containing 0.5% DMSO and 0.02% Silwet-77.
Thermal images were collected at 16 h after treatment. Thermal images were quantified using the Flir tools software version 5.2.15161.1001 by measuring the average leaf temperature of 5-6 leaves per plant. Average temperatures were calculated for 10 replicate plants (in 5 pots) per treatment. Statistical comparisons between the treated and the mock-treated plants were performed using pairwise t-tests. In the graphs represented in FIG. 1B, error bars represent the standard error of mean, asterisks symbols indicate statistical significance, and * indicates p≤0.05, ** for p≤0.01, *** for p≤0.001.

PYR1 = target: T1, PYR1 (Arabidopsis thaliana, UniProt O49686); experiment: PP2C inhibition assay, recombinant PYR1 receptor; assay type: biochemical
T1 sequence (O49686 1-191): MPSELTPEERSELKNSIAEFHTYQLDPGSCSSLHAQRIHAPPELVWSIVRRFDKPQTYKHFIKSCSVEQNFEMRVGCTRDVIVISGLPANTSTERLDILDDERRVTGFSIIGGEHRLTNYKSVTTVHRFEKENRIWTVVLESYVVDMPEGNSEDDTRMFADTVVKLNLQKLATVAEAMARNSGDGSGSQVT
T1 sequence (Q9CAJ0 23-511 partner): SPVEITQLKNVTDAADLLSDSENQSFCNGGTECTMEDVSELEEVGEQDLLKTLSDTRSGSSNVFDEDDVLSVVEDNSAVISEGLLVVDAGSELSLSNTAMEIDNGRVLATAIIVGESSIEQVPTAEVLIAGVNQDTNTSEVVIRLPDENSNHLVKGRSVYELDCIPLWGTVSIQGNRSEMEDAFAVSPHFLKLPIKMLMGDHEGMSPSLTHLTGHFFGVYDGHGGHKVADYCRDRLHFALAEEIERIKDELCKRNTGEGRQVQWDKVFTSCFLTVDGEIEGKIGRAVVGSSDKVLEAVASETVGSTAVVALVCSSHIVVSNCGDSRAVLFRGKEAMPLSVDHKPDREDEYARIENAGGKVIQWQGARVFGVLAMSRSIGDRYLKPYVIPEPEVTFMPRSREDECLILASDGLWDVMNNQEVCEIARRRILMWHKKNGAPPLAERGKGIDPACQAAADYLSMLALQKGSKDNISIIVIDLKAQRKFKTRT
Experimental: (§1) Reactions were started by adding 40 μL of a reaction solution containing 25 mM 4-nitrophenyl phosphate in assay buffer, after which absorbance measurements were immediately collected using a 405 nm on Wallac plate reader. Reactions contained 100 nM PP2C and 200 nM PYR/PYL proteins. […] The dose response data was fitted to a log (inhibitor) vs response-(variable slope) model using non-linear regression to infer the IC50 values using Graph Pad Prism 6.0.

PYL2 = target: T2, PYL2 (Arabidopsis thaliana, UniProt O80992); experiment: PP2C inhibition assay, recombinant PYL2 receptor; assay type: biochemical
T2 sequence (O80992 1-190): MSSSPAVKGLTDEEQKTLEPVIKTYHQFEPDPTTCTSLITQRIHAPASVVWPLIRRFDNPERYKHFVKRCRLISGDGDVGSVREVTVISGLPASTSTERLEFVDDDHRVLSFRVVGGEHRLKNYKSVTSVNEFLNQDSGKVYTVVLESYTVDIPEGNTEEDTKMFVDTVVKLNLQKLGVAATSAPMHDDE
T2 sequence (Q9CAJ0 23-511 partner): T1 sequence (Q9CAJ0 23-511 partner)
Experimental: as §1

[1] = test system: Arabidopsis thaliana seeds; experiment: Germination assay; assay type: in vivo; settings: Minimal Inhibitory Concentration, 3 d in darkness after 4 d stratification
Experimental: Germination experiments were performed with Arabidopsis thaliana seeds of wildtype Col0, Ler, or mutant backgrounds.
Seeds were sterilized by 30 sec incubation in 70% ethanol solution followed by a 5 min […] (while vigorously shaking) in a bleach-Tween solution. Afterwards, the sterilizing solutions were removed, and five washes were performed with sterile distilled water. To enhance complete removal of the solutions between the different steps, short centrifuge spins were performed. Finally, the now surface-sterilized seeds were re-suspended in an aseptic 0.1% agar solution to simplify distribution over multiwall plates. One drop of the solution contained on average 20-30 seeds.
In the multiwell plates, seeds were plated onto 0.7% agar Murashige amd Skoog (MS) plant growth medium containing one-half MS salts and 0.5% sucrose containing different concentrations of ABA, quinabactin, or the compound of interest. After 4 d of stratification at 4° C., the plates were transferred to a growth chamber in darkness and allowed to germinate for 3 d before germination was evaluated. The results are shown above in Table 1 and FIGS. 3A and 3B.

[2] = recombinant receptor 200 nM, PP2C 100 nM, 4-nitrophenyl phosphate substrate, absorbance 405 nm, read-out: IC50 PYR1
[3] = recombinant receptor 200 nM, PP2C 100 nM, 4-nitrophenyl phosphate substrate, absorbance 405 nm, read-out: IC50 PYL2

Row | Compound | increase of leaf surface temperature (adult Arabidopsis plants) | IC50 (PYR1; [2]) | IC50 (PYL2; [3]) | MIC (μM) Germination [1] | IC50 (PYR1) | IC50 (PYL2)
1 | CCCc1cc(NS(=O)(=O)Cc2ccc(C)cc2)cc(C)c1C#N [Ligand Q32, N-(4-Cyano-3-methyl-5-propylphenyl)-1-(4-methylphenyl)methanesulfonamide] | to a lesser extent | 0.22 ± 0.018 µM | 1.61 ± 0.023 µM | 10 µM (≈ 3.42 µg/mL) | – | –
2 | CCCN1C(=O)CCc2cc(NS(=O)(=O)Cc3ccc(C)cc3)ccc21 [QB, Quinabactin, reference compound] | – | – | – | 3 µM (≈ 1.12 µg/mL) | – | –
3 | Cc1ccc(CS(=O)(=O)Nc2cc(C(F)(F)F)c(C#N)cc2[N+](=O)[O-])cc1 [Ligand Q17, N-[4-Cyano-2-nitro-5-(trifluoromethyl)phenyl]-1-(4-methylphenyl) methanesulfonamide] | – | > 50 µM | > 50 µM | >25 µM | – | –
4 | CC(=O)Nc1ccc(NS(=O)(=O)Cc2ccc(C)cc2)cc1C(F)(F)F [Ligand Q10, N-[4-{[(4-Methylbenzyl)sulfonyl]amino}-2-(trifluoromethyl)phenyl]acetamide] | – | > 50 µM | > 50 µM | >25 µM | – | –
5 | Cc1ccc(CS(=O)(=O)Nc2ccc(C#N)c(C(F)(F)F)c2)cc1 [Ligand Q4, N-(4-Cyano-3-(trifluoromethyl)-phenyl)-1-(4-methylphenyl)methanesulfonamide] | – | – | – | 10 µM (≈ 3.54 µg/mL) | 0.258 ± 0.019 µM | 9.58 ± 0.102 µM
6 | Cc1ccc(CS(=O)(=O)Nc2cc(C)c(C#N)c(C)c2)cc1 [Ligand Q15, N-(4-Cyano-3,5-dimethylphenyl)-1-(4-methylphenyl)methanesulfonamide] | – | 0.098 ± 0.007 µM | 2.58 ± 0.222 µM | 10 µM (≈ 3.14 µg/mL) | – | –
7 | Cc1cc(NS(=O)(=O)Cc2ccc(C3CC3)cc2)cc(C)c1C#N [Ligand Q23, N-(4-Cyano-3,5-dimethylphenyl)-1-(4-cyclopropylphenyl)methanesulfonamide] | – | 0.203 ± 0.025 µM | 20.1 ± 1.46 µM | 10 µM (≈ 3.4 µg/mL) | – | –
8 | Cc1ccc(CS(=O)(=O)Nc2ccc(C#N)c(Br)c2)cc1 [Ligand Q3, N-(3-Bromo-4-cyanophenyl)-1-(4-methylphenyl)methanesulfonamide] | – | 2.5 ± 0.151 µM | > 50 µM | >25 µM | – | –
9 | N#Cc1ccc(NS(=O)(=O)Cc2ccc(Br)cc2)cc1C(F)(F)F [Ligand Q7, 1-(4-Bromophenyl)-N-[4-cyano-3-(trifluoromethyl)phenyl]methanesulfonamide] | – | – | – | 10 µM (≈ 4.19 µg/mL) | 0.326 ± 0.0077 µM | 31.4 ± 3.4 µM
10 | Cc1ccc(CS(=O)(=O)Nc2cc(C(F)(F)F)c(C#N)c(C(F)(F)F)c2)cc1 [Ligand Q14, N-(4-Cyano-3,5-(bistrifluoromethyl)phenyl)-1-(4-methylphenyl) methanesulfonamide] | – | > 50 µM | > 50 µM | >25 µM | – | –
11 | N#Cc1ccc(NS(=O)(=O)Cc2ccc(C(F)(F)F)cc2)cc1C(F)(F)F [Ligand Q9, N-[4-Cyano-3-(trifluoromethyl)phenyl]-1-[4-(trifluoromethyl)phenyl]methanesulfonamide] | – | – | – | 10 µM (≈ 4.08 µg/mL) | 3.4 ± 0.27 µM | > 50 µM
12 | N#Cc1ccc(NS(=O)(=O)Cc2ccc(N)cc2)cc1C(F)(F)F [Ligand Q6, 1-(4-Aminophenyl)-N-[4-cyano-3-(trifluoromethyl)phenyl]methanesulfonamide] | – | – | – | >25 µM | 3.4 ± 0.2 µM | > 50 µM
13 | Cc1ccc(CS(=O)(=O)Nc2ccc(C#N)c(C)c2)cc1 [Ligand Q1, N-(4-Cyano-3-methylphenyl)-1-(4-methylphenyl)methanesulfonamide] | – | 0.246 ± 0.06 µM | 20 ± 1.08 µM | 10 µM (≈ 3 µg/mL) | – | –
14 | Cc1ccc(CS(=O)(=O)Nc2cc(C)c(C#N)c(Br)c2)cc1 [Ligand Q25, N-(3-Bromo-4-cyano-5-methylphenyl)-1-(4-methylphenyl)methanesulfonamide] | – | 0.355 ± 0.034 µM | 16.7 ± 0.788 µM | 25 µM (≈ 9.48 µg/mL) | – | –
15 | Cc1cc(NS(=O)(=O)Cc2ccc(C(F)(F)F)cc2)ccc1C#N [Ligand Q13, N-(4-Cyano-3-methylphenyl)-1-[4-(trifluoromethyl)phenyl]methanesulfonamide] | – | 1.1 ± 0.183 µM | > 50 µM | >25 µM | – | –
16 | Cc1cc(NS(=O)(=O)Cc2ccc(Br)cc2F)cc(C)c1C#N [Ligand Q24, 1-(4-Bromo-2-fluorophenyl)-N-(4-cyano-3,5-dimethylphenyl)methanesulfonamide] | – | – | – | 10 µM (≈ 3.97 µg/mL) | 0.188 ± 0.019 µM | 11.9 ± 1.47 µM
17 | N#Cc1ccc(NS(=O)(=O)Cc2ccc([N+](=O)[O-])cc2)cc1C(F)(F)F [Ligand Q5, N-[4-Cyano-3-(trifluoromethyl)phenyl]-1-(4-nitrophenyl)methanesulfonamide] | – | – | – | >25 µM | 8.24 ± 0.52 µM | > 50 µM
18 | Cc1ccc(CS(=O)(=O)Nc2ccc(C#N)c(Cl)c2)cc1 [Ligand Q2, N-(3-Chloro-4-cyanophenyl)-1-(4-methylphenyl)methanesulfonamide] | – | – | – | 25 µM (≈ 8.02 µg/mL) | 3.91 ± 0.122 µM | > 50 µM
19 | Cc1ccc(CS(=O)(=O)Nc2cc(C)c(C#N)c(C3CC3)c2)cc1 [Ligand Q28, N-(4-Cyano-3-cyclopropyl-5-methylphenyl)-1-(4-methylphenyl) methanesulfonamide] | – | 0.21 ± 0.036 µM | 1.66 ± 0.046 µM | 10 µM (≈ 3.4 µg/mL) | – | –
20 | Cc1cc(NS(=O)(=O)Cc2ccc(Cl)cc2)cc(C)c1C#N [Ligand Q22, 1-(4-Chlorophenyl)-N-(4-cyano-3,5-dimethylphenyl)methanesulfonamide] | – | 0.197 ± 0.009 µM | 5.63 ± 0.8 µM | 10 µM (≈ 3.35 µg/mL) | – | –
21 | Cc1ccc(CS(=O)(=O)Nc2cc(C(F)(F)F)c(C#N)cc2N)cc1 [Ligand Q18, N-[2-Amino-4-cyano-5-(trifluoromethyl)phenyl]-1-(4-methylphenyl) methanesulfonamide] | – | > 50 µM | > 50 µM | >25 µM | – | –
22 | CCCN(C(C)=O)c1ccc(NS(=O)(=O)Cc2ccc(C)cc2)cc1C(F)(F)F [Ligand Q11, N-[4-{[(4-Methylbenzyl)sulfonyl]amino}-2-(trifluoromethyl)phenyl]-N-propylacetamide] | – | > 50 µM | > 50 µM | >25 µM | – | –
23 | COc1cc(NS(=O)(=O)Cc2ccc(C)cc2)ccc1C#N [Ligand Q20, N-(4-Cyano-3-methoxyphenyl)-1-(4-methylphenyl)methanesulfonamide] | – | 0.13 ± 0.009 µM | 11.8 ± 1.12 µM | 5 µM (≈ 1.58 µg/mL) | – | –
